Data from ChEMBL document CHEMBL1649488, “In vitro activities of echinocandins against Candida krusei determined by three methods: MIC and minimal fungicidal concentration measurements and time-kill studies” (2009).
Converted amounts (≈) assume the structure as drawn. The source made the active and inactive calls. The rule behind the calls is not given here.

What was measured:
Type in all cases: functional
Pichia kudriavzevii [1] = experiment: Antifungal activity against Candida krusei ATCC 6258 bloodstream forms assessed as minimum concentration producing >= 100% growth reduction after 24 hrs by M27-A3 microdilution method; settings: ATCC 6258, 24 h
Pichia kudriavzevii [2] = experiment: Fungicidal activity against Candida krusei ATCC 6258 bloodstream forms after 48 hrs by M27-A3 microdilution method
Pichia kudriavzevii [3] = experiment: Antifungal activity against Candida krusei ATCC 6258 bloodstream forms assessed as minimum concentration producing >= 50% growth reduction after 24 hrs by M27-A3 microdilution method; settings: ATCC 6258, 24 h
Pichia kudriavzevii [4] = experiment: Antifungal activity against Candida krusei CK1 bloodstream forms after 24 hrs by time-kill analysis; settings: CK1, 24 h
Pichia kudriavzevii [5] = experiment: Fungicidal activity against Candida krusei CK1 bloodstream forms after 24 hrs by time-kill analysis; settings: CK1, 24 h
Pichia kudriavzevii [6] = experiment: Antifungal activity against Candida krusei CK2 bloodstream forms after 24 hrs by time-kill analysis; settings: CK2, 24 h
Pichia kudriavzevii [7] = experiment: Fungicidal activity against Candida krusei CK2 bloodstream forms after 24 hrs by time-kill analysis; settings: CK2, 24 h
Pichia kudriavzevii [8] = experiment: Antifungal activity against Candida krusei CK6 bloodstream forms after 24 hrs by time-kill analysis; settings: CK6, 24 h
Pichia kudriavzevii [9] = experiment: Fungicidal activity against Candida krusei CK6 bloodstream forms after 24 hrs by time-kill analysis; settings: CK6, 24 h
Pichia kudriavzevii [10] = experiment: Antifungal activity against Candida krusei CK18 bloodstream forms after 24 hrs by time-kill analysis; settings: CK18, 24 h
Pichia kudriavzevii [11] = experiment: Fungicidal activity against Candida krusei CK18 bloodstream forms after 24 hrs by time-kill analysis; settings: CK18, 24 h
Pichia kudriavzevii [12] = experiment: Antifungal activity against Candida krusei EU123 bloodstream forms after 24 hrs by time-kill analysis; settings: EU123, 24 h
Pichia kudriavzevii [13] = experiment: Fungicidal activity against Candida krusei EU123 bloodstream forms after 24 hrs by time-kill analysis; settings: EU123, 24 h
Pichia kudriavzevii [14] = experiment: Antifungal activity against Candida krusei EU220 bloodstream forms after 24 hrs by time-kill analysis; settings: EU220, 24 h
Pichia kudriavzevii [15] = experiment: Fungicidal activity against Candida krusei EU220 bloodstream forms after 24 hrs by time-kill analysis; settings: EU220, 24 h
Pichia kudriavzevii [16] = experiment: Antifungal activity against Candida krusei CY118 bloodstream forms after 24 hrs by time-kill analysis; settings: CY118, 24 h
Pichia kudriavzevii [17] = experiment: Fungicidal activity against Candida krusei CY118 bloodstream forms after 24 hrs by time-kill analysis; settings: CY118, 24 h
Pichia kudriavzevii [18] = experiment: Antifungal activity against Candida krusei ATCC 6258 bloodstream forms after 24 hrs by time-kill analysis; settings: ATCC 6258, 24 h
Pichia kudriavzevii [19] = experiment: Fungicidal activity against Candida krusei ATCC 6258 bloodstream forms after 24 hrs by time-kill analysis; settings: ATCC 6258, 24 h
Pichia kudriavzevii [20] = experiment: Antifungal activity against Candida krusei ATCC 6258 bloodstream forms assessed as time to achieve 50% fungal growth reduction at 0.12 mg/L by time-kill analysis
Pichia kudriavzevii [21] = experiment: Antifungal activity against Candida krusei ATCC 6258 bloodstream forms assessed as time to achieve 90% fungal growth reduction at 0.12 mg/L by time-kill analysis
Pichia kudriavzevii [22] = experiment: Antifungal activity against Candida krusei ATCC 6258 bloodstream forms assessed as time to achieve 99% fungal growth reduction at 0.12 mg/L by time-kill analysis
Pichia kudriavzevii [23] = experiment: Antifungal activity against Candida krusei ATCC 6258 bloodstream forms assessed as time to achieve 99.9% fungal growth reduction at 0.12 mg/L by time-kill analysis
Pichia kudriavzevii [24] = experiment: Antifungal activity against Candida krusei ATCC 6258 bloodstream forms assessed as time to achieve 50% fungal growth reduction at 0.5 mg/L by time-kill analysis
Pichia kudriavzevii [25] = experiment: Antifungal activity against Candida krusei ATCC 6258 bloodstream forms assessed as time to achieve 90% fungal growth reduction at 0.5 mg/L by time-kill analysis
Pichia kudriavzevii [26] = experiment: Antifungal activity against Candida krusei ATCC 6258 bloodstream forms assessed as time to achieve 99% fungal growth reduction at 0.5 mg/L by time-kill analysis
Pichia kudriavzevii [27] = experiment: Antifungal activity against Candida krusei ATCC 6258 bloodstream forms assessed as time to achieve 99.9% fungal growth reduction at 0.5 mg/L by time-kill analysis
Pichia kudriavzevii [28] = experiment: Antifungal activity against Candida krusei ATCC 6258 bloodstream forms assessed as time to achieve 50% fungal growth reduction at 2 mg/L by time-kill analysis
Pichia kudriavzevii [29] = experiment: Antifungal activity against Candida krusei ATCC 6258 bloodstream forms assessed as time to achieve 90% fungal growth reduction at 2 mg/L by time-kill analysis
Pichia kudriavzevii [30] = experiment: Antifungal activity against Candida krusei ATCC 6258 bloodstream forms assessed as time to achieve 99% fungal growth reduction at 2 mg/L by time-kill analysis
Pichia kudriavzevii [31] = experiment: Antifungal activity against Candida krusei ATCC 6258 bloodstream forms assessed as time to achieve 99.9% fungal growth reduction at 2 mg/L by time-kill analysis
Pichia kudriavzevii [32] = experiment: Antifungal activity against Candida krusei ATCC 6258 bloodstream forms assessed as time to achieve 50% fungal growth reduction at 8 mg/L by time-kill analysis
Pichia kudriavzevii [33] = experiment: Antifungal activity against Candida krusei ATCC 6258 bloodstream forms assessed as time to achieve 90% fungal growth reduction at 8 mg/L by time-kill analysis
Pichia kudriavzevii [34] = experiment: Antifungal activity against Candida krusei ATCC 6258 bloodstream forms assessed as time to achieve 99% fungal growth reduction at 8 mg/L by time-kill analysis
Pichia kudriavzevii [35] = experiment: Antifungal activity against Candida krusei ATCC 6258 bloodstream forms assessed as time to achieve 99.9% fungal growth reduction at 8 mg/L by time-kill analysis
Pichia kudriavzevii [36] = experiment: Antifungal activity against Candida krusei ATCC 6258 bloodstream forms assessed as time to achieve 50% fungal growth reduction at 32 mg/L by time-kill analysis
Pichia kudriavzevii [37] = experiment: Antifungal activity against Candida krusei ATCC 6258 bloodstream forms assessed as time to achieve 90% fungal growth reduction at 32 mg/L by time-kill analysis
Pichia kudriavzevii [38] = experiment: Antifungal activity against Candida krusei ATCC 6258 bloodstream forms assessed as time to achieve 99% fungal growth reduction at 32 mg/L by time-kill analysis
Pichia kudriavzevii [39] = experiment: Antifungal activity against Candida krusei ATCC 6258 bloodstream forms assessed as time to achieve 99.9% fungal growth reduction at 32 mg/L by time-kill analysis
Pichia kudriavzevii [40] = experiment: Antifungal activity against Candida krusei ATCC 6258 bloodstream forms assessed as minimum concentration producing >= 50% growth reduction after 48 hrs by M27-A3 microdilution method; settings: ATCC 6258, 48 h
Pichia kudriavzevii [41] = experiment: Antifungal activity against Candida krusei ATCC 6258 bloodstream forms assessed as minimum concentration producing >= 100% growth reduction after 48 hrs by M27-A3 microdilution method; settings: ATCC 6258, 48 h

CC[C@H](C)C[C@H](C)CCCCCCCCC(=O)N[C@H]1C[C@@H](O)[C@@H](NCCN)NC(=O)[C@@H]2[C@@H](O)CCN2C(=O)[C@H]([C@H](O)CCN)NC(=O)[C@H]([C@H](O)[C@@H](O)c2ccc(O)cc2)NC(=O)[C@@H]2C[C@@H](O)CN2C(=O)[C@H]([C@@H](C)O)NC1=O [CASPOFUNGIN]
MIC50 (Pichia kudriavzevii [1]): 1 µg/mL (≈ 0.915 µM) | MIC90 (Pichia kudriavzevii [1]): 2 µg/mL (≈ 1.83 µM) | MFC50 (Pichia kudriavzevii [2]): 2 µg/mL (≈ 1.83 µM) | MFC90 (Pichia kudriavzevii [2]): 8 µg/mL (≈ 7.32 µM) | MFC (Pichia kudriavzevii [2]; Pichia kudriavzevii, ATCC 6258, 48 h): 1 µg/mL (≈ 0.915 µM) | MIC50 (Pichia kudriavzevii [3]): 1 µg/mL (≈ 0.915 µM) | MIC90 (Pichia kudriavzevii [3]): 2 µg/mL (≈ 1.83 µM) | MIC (Pichia kudriavzevii [4]): 1 µg/mL (≈ 0.915 µM) | MFC (Pichia kudriavzevii [5]): 8 µg/mL (≈ 7.32 µM) | MIC (Pichia kudriavzevii [6]): 1 µg/mL (≈ 0.915 µM) | MFC (Pichia kudriavzevii [7]): 1 µg/mL (≈ 0.915 µM) | MIC (Pichia kudriavzevii [8]): 1 µg/mL (≈ 0.915 µM) | MFC (Pichia kudriavzevii [9]): 1 µg/mL (≈ 0.915 µM) | MIC (Pichia kudriavzevii [10]): 1 µg/mL (≈ 0.915 µM) | MFC (Pichia kudriavzevii [11]): 2 µg/mL (≈ 1.83 µM) | MIC (Pichia kudriavzevii [12]): 2 µg/mL (≈ 1.83 µM) | MFC (Pichia kudriavzevii [13]): 2 µg/mL (≈ 1.83 µM) | MIC (Pichia kudriavzevii [14]): 2 µg/mL (≈ 1.83 µM) | MFC (Pichia kudriavzevii [15]): 2 µg/mL (≈ 1.83 µM) | MIC (Pichia kudriavzevii [16]): 4 µg/mL (≈ 3.66 µM) | MFC (Pichia kudriavzevii [17]): > 64 µg/mL | MIC (Pichia kudriavzevii [18]): 1 µg/mL (≈ 0.915 µM) | MFC (Pichia kudriavzevii [19]): 2 µg/mL (≈ 1.83 µM) | Activity (Pichia kudriavzevii [20]): inactive | Activity (Pichia kudriavzevii [21]): inactive | Activity (Pichia kudriavzevii [22]): inactive | Activity (Pichia kudriavzevii [23]): inactive | Time (Pichia kudriavzevii [24]): 8.3 h | Time (Pichia kudriavzevii [25]): 27.6 h | Time (Pichia kudriavzevii [26]): >48 h | Time (Pichia kudriavzevii [27]): >48 h | Time (Pichia kudriavzevii [28]): 3.7 h | Time (Pichia kudriavzevii [29]): 12.5 h | Time (Pichia kudriavzevii [30]): 24.9 h | Time (Pichia kudriavzevii [31]): 37.4 h | Time (Pichia kudriavzevii [32]): 2.9 h | Time (Pichia kudriavzevii [33]): 9.7 h | Time (Pichia kudriavzevii [34]): 19.5 h | Time (Pichia kudriavzevii [35]): 29.2 h | Time (Pichia kudriavzevii [36]): 2.1 h | Time (Pichia kudriavzevii [37]): 7.1 h | Time (Pichia kudriavzevii [38]): 14.3 h | Time (Pichia kudriavzevii [39]): 21.4 h | MIC50 (Pichia kudriavzevii [40]): 1 µg/mL (≈ 0.915 µM) | MIC90 (Pichia kudriavzevii [40]): 2 µg/mL (≈ 1.83 µM) | MIC (Pichia kudriavzevii [41]): 0.8 µg/mL (≈ 0.732 µM) | MIC50 (Pichia kudriavzevii [41]): 1 µg/mL (≈ 0.915 µM) | MIC90 (Pichia kudriavzevii [41]): 2 µg/mL (≈ 1.83 µM)
